{"source": "patent US3974268A", "about": "“Bone-seeking technetium-99m imidodiphosphonate complex” (priority 1975, dated 1976)", "key": {"[1]": {"conditions": "cited from earlier work"}, "[2]": {"assay": "Acute toxicity (LD 50/30) by serial injection of graduated doses", "format": "in vivo", "conditions": "mice and rabbits", "experimental": "A toxicological study was conducted in both mice and rabbits by serial injection of graduated doses and the acute toxicity of imidodiphosphonate (LD 50/30) was determined to be 45-50 mg imidodiphosphonic acid per kilogram body weight."}, "[3]": {"conditions": "2 hours, rabbits, derived from Subramanian et al references"}}, "note": "Where two headings read alike, the source gives them in different places."}
{"compound": "O=P(O)(O)CN(CCN(CP(=O)(O)O)CP(=O)(O)O)CCN(CP(=O)(O)O)CP(=O)(O)O", "note": "(99mTc complex, metal not drawn) [DTPMP, Diethylene Triamino Penta (Methylene Phosphonate)]", "values": [{"measurement": "99mTc/85Sr ratio calculated from specific concentrations, Average Bone", "setting": "[1]; rabbit, in vivo", "result": 0.467}, {"measurement": "99mTc/85Sr ratio calculated from specific concentrations, Blood", "setting": "[1]; rabbit, in vivo", "result": 0.461}, {"measurement": "99mTc/85Sr ratio calculated from specific concentrations, Femur", "setting": "[1]; rabbit, in vivo", "result": 0.419}, {"measurement": "99mTc/85Sr ratio calculated from specific concentrations, Kidney", "setting": "[1]; rabbit, in vivo", "result": 3.82}, {"measurement": "99mTc/85Sr ratio calculated from specific concentrations, Liver", "setting": "[1]; rabbit, in vivo", "result": 0.544}, {"measurement": "99mTc/85Sr ratio calculated from specific concentrations, Marrow", "setting": "[1]; rabbit, in vivo", "result": 0.547}, {"measurement": "99mTc/85Sr ratio calculated from specific concentrations, Muscle", "setting": "[1]; rabbit, in vivo", "result": 0.221}, {"measurement": "99mTc/85Sr ratio calculated from specific concentrations, Pelvis", "setting": "[1]; rabbit, in vivo", "result": 0.627}, {"measurement": "99mTc/85Sr ratio calculated from specific concentrations, Spine", "setting": "[1]; rabbit, in vivo", "result": 0.415}, {"measurement": "99mTc/85Sr ratio calculated from specific concentrations, Tibia", "setting": "[1]; rabbit, in vivo", "result": 0.384}]}
{"compound": "O=P(O)(O)CN(CCCCCCN(CP(=O)(O)O)CP(=O)(O)O)CP(=O)(O)O", "note": "(99mTc complex, metal not drawn) [HMDTMP, Hexamethylene Diamino Tetra (Methylene Phosphonate)]", "values": [{"measurement": "99mTc/85Sr ratio calculated from specific concentrations, Average Bone", "setting": "[1]; [3]", "result": 0.456}, {"measurement": "99mTc/85Sr ratio calculated from specific concentrations, Blood", "setting": "[1]; [3]", "result": 0.703}, {"measurement": "99mTc/85Sr ratio calculated from specific concentrations, Femur", "setting": "[1]; [3]", "result": 0.434}, {"measurement": "99mTc/85Sr ratio calculated from specific concentrations, Kidney", "setting": "[1]; [3]", "result": 7.06}, {"measurement": "99mTc/85Sr ratio calculated from specific concentrations, Liver", "setting": "[1]; [3]", "result": 0.855}, {"measurement": "99mTc/85Sr ratio calculated from specific concentrations, Marrow", "setting": "[1]; [3]", "result": 0.713}, {"measurement": "99mTc/85Sr ratio calculated from specific concentrations, Muscle", "setting": "[1]; [3]", "result": 0.407}, {"measurement": "99mTc/85Sr ratio calculated from specific concentrations, Pelvis", "setting": "[1]; [3]", "result": 0.516}, {"measurement": "99mTc/85Sr ratio calculated from specific concentrations, Spine", "setting": "[1]; [3]", "result": 0.428}, {"measurement": "99mTc/85Sr ratio calculated from specific concentrations, Tibia", "setting": "[1]; [3]", "result": 0.437}]}
{"compound": "O=P(O)(O)OP(=O)(O)O", "note": "[Pyro Phosphate]", "values": [{"measurement": "99mTc/85Sr ratio calculated from specific concentrations, Average Bone", "setting": "[1]; rabbit, in vivo", "result": 0.812}, {"measurement": "99mTc/85Sr ratio calculated from specific concentrations, Blood", "setting": "[1]; rabbit, in vivo", "result": 0.703}, {"measurement": "99mTc/85Sr ratio calculated from specific concentrations, Femur", "setting": "[1]; rabbit, in vivo", "result": 0.710}, {"measurement": "99mTc/85Sr ratio calculated from specific concentrations, Kidney", "setting": "[1]; rabbit, in vivo", "result": 2.81}, {"measurement": "99mTc/85Sr ratio calculated from specific concentrations, Liver", "setting": "[1]; rabbit, in vivo", "result": 0.779}, {"measurement": "99mTc/85Sr ratio calculated from specific concentrations, Marrow", "setting": "[1]; rabbit, in vivo", "result": 0.726}, {"measurement": "99mTc/85Sr ratio calculated from specific concentrations, Muscle", "setting": "[1]; rabbit, in vivo", "result": 0.365}, {"measurement": "99mTc/85Sr ratio calculated from specific concentrations, Pelvis", "setting": "[1]; rabbit, in vivo", "result": 0.918}, {"measurement": "99mTc/85Sr ratio calculated from specific concentrations, Spine", "setting": "[1]; rabbit, in vivo", "result": 0.827}, {"measurement": "99mTc/85Sr ratio calculated from specific concentrations, Tibia", "setting": "[1]; rabbit, in vivo", "result": 0.694}]}
{"compound": "Amino Ethylne Diphosphonate [AEDP]", "values": [{"measurement": "99mTc/85Sr ratio calculated from specific concentrations, Average Bone", "setting": "[1]; [3]", "result": 0.648}, {"measurement": "99mTc/85Sr ratio calculated from specific concentrations, Blood", "setting": "[1]; [3]", "result": 0.416}, {"measurement": "99mTc/85Sr ratio calculated from specific concentrations, Femur", "setting": "[1]; [3]", "result": 0.641}, {"measurement": "99mTc/85Sr ratio calculated from specific concentrations, Kidney", "setting": "[1]; [3]", "result": 3.71}, {"measurement": "99mTc/85Sr ratio calculated from specific concentrations, Liver", "setting": "[1]; [3]", "result": 0.766}, {"measurement": "99mTc/85Sr ratio calculated from specific concentrations, Marrow", "setting": "[1]; [3]", "result": 0.852}, {"measurement": "99mTc/85Sr ratio calculated from specific concentrations, Muscle", "setting": "[1]; [3]", "result": 0.135}, {"measurement": "99mTc/85Sr ratio calculated from specific concentrations, Pelvis", "setting": "[1]; [3]", "result": 0.693}, {"measurement": "99mTc/85Sr ratio calculated from specific concentrations, Spine", "setting": "[1]; [3]", "result": 0.618}, {"measurement": "99mTc/85Sr ratio calculated from specific concentrations, Tibia", "setting": "[1]; [3]", "result": 0.641}]}
{"compound": "Ethylene Hydroxy Diphosphonate [EHDP]", "values": [{"measurement": "99mTc/85Sr ratio calculated from specific concentrations, Average Bone", "setting": "[1]; [3]", "result": 0.832}, {"measurement": "99mTc/85Sr ratio calculated from specific concentrations, Blood", "setting": "[1]; [3]", "result": 0.362}, {"measurement": "99mTc/85Sr ratio calculated from specific concentrations, Femur", "setting": "[1]; [3]", "result": 0.796}, {"measurement": "99mTc/85Sr ratio calculated from specific concentrations, Kidney", "setting": "[1]; [3]", "result": 3.53}, {"measurement": "99mTc/85Sr ratio calculated from specific concentrations, Liver", "setting": "[1]; [3]", "result": 0.954}, {"measurement": "99mTc/85Sr ratio calculated from specific concentrations, Marrow", "setting": "[1]; [3]", "result": 0.814}, {"measurement": "99mTc/85Sr ratio calculated from specific concentrations, Muscle", "setting": "[1]; [3]", "result": 0.172}, {"measurement": "99mTc/85Sr ratio calculated from specific concentrations, Pelvis", "setting": "[1]; [3]", "result": 0.913}, {"measurement": "99mTc/85Sr ratio calculated from specific concentrations, Spine", "setting": "[1]; [3]", "result": 0.801}, {"measurement": "99mTc/85Sr ratio calculated from specific concentrations, Tibia", "setting": "[1]; [3]", "result": 0.798}]}
{"compound": "Poly Phosphate", "values": [{"measurement": "99mTc/85Sr ratio calculated from specific concentrations, Average Bone", "setting": "[1]; [3]", "result": 0.87}, {"measurement": "99mTc/85Sr ratio calculated from specific concentrations, Blood", "setting": "[1]; [3]", "result": 1.48}, {"measurement": "99mTc/85Sr ratio calculated from specific concentrations, Femur", "setting": "[1]; [3]", "result": 0.826}, {"measurement": "99mTc/85Sr ratio calculated from specific concentrations, Kidney", "setting": "[1]; [3]", "result": 9.46}, {"measurement": "99mTc/85Sr ratio calculated from specific concentrations, Liver", "setting": "[1]; [3]", "result": 2.61}, {"measurement": "99mTc/85Sr ratio calculated from specific concentrations, Marrow", "setting": "[1]; [3]", "result": 2.95}, {"measurement": "99mTc/85Sr ratio calculated from specific concentrations, Muscle", "setting": "[1]; [3]", "result": 0.623}, {"measurement": "99mTc/85Sr ratio calculated from specific concentrations, Pelvis", "setting": "[1]; [3]", "result": 1.01}, {"measurement": "99mTc/85Sr ratio calculated from specific concentrations, Spine", "setting": "[1]; [3]", "result": 0.82}, {"measurement": "99mTc/85Sr ratio calculated from specific concentrations, Tibia", "setting": "[1]; [3]", "result": 0.66}]}
{"compound": "imidodiphosphonic acid [imidodiphosphonate]", "values": [{"measurement": "acute toxicity (LD 50/30)", "setting": "[2]", "result": "45-50 mg imidodiphosphonic acid per kilogram body weight"}]}
